Source: patent US10556888B2, “Pyrazole compounds or salts thereof, preparation methods therefor, herbicidal compositions and use thereof” (QINGDAO KINGAGROOT CHEMICAL COMPOUNDS CO., LTD, priority 2015, dated 2020)

Experiments:
Type in all cases: in vivo
[1] = system: Monocotyledonous and dicotyledonous weed; test: Post-emergence test experiment, weed control effect (Table 2); set-up: key to weed control effect, Setaria viridis (level) / weed control effect, Rorippa indica (level) / weed control effect, Abutilon theophrasti (level) / weed control effect, Echinochloa crus-galli (level) / weed control effect, Digitaria sanguinalis (level): Level 10: completely dead; Level 9: above 90% growth inhibition rate; Level 8: above 80% growth inhibition rate; Level 7: above 70% growth inhibition rate; Level 6: above 60% growth inhibition rate; Level 5: above 50% growth inhibition rate; Level 4: above 30% growth inhibition rate; Level 3: above 20% growth inhibition rate; Level 2: above 10% growth inhibition rate; Level 1: above 1-10% growth inhibition rate; Level 0: no effect; settings: 3 weeks after spraying, greenhouse
Method in brief: (§1)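 Compounds, dissolved in acetone, mixed with Tween 80 and diluted in water, were sprayed post-emergence onto greenhouse-grown weeds and crops at the 2-3 leaf stage (2-3 weeks post-sowing). Plants then grown 3 more weeks in the greenhouse before evaluation.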

[2] = system: main crop (wheat, corn, rice, soybean, cotton, oilseed, millet and sorghum); test: Post-emergence test experiment, main crops (Table 2); set-up: key: Level 10: completely dead; Level 9: above 90% growth inhibition rate; Level 8: above 80% growth inhibition rate; Level 7: above 70% growth inhibition rate; Level 6: above 60% growth inhibition rate; Level 5: above 50% growth inhibition rate; Level 4: above 30% growth inhibition rate; Level 3: above 20% growth inhibition rate; Level 2: above 10% growth inhibition rate; Level 1: above 1-10% growth inhibition rate; Level 0: no effect; settings: 3 weeks after spraying, greenhouse
Method in brief: as §1

Echinochloa crus-galli = test: Weed control effect evaluation in transplanted rice field; set-up: key: Level 10: completely dead; Level 9: above 90% growth inhibition rate; Level 8: above 80% growth inhibition rate; Level 7: above 70% growth inhibition rate; Level 6: above 60% growth inhibition rate; Level 5: above 50% growth inhibition rate; Level 4: above 30% growth inhibition rate; Level 3: above 20% growth inhibition rate; Level 2: above 10% growth inhibition rate; Level 1: above 1-10% growth inhibition rate; Level 0: no effect; settings: transplanted rice field pot test, 14 days after treatment
Protocol: (§2) Rice field soil was loaded into a 1/1,000,000 ha pot. The seeds of Echinochloa, Scirpus juncoides, Bidens tripartite and Sagittaria trifolia were sowed and gently covered with soil, then left to stand still in greenhouse in the state of 0.5-1 cm of water storage. The tuber of Sagittaria trifolia was planted in the next day or 2 days later. It was kept at 3-4 cm of water storage thereafter. The weeds were treated by dripping the WP or SC water diluents prepared according to the common preparation method of the compounds of the present invention with pipette homogeneously to achieve specified effective amount when Echinochloa, Scirpus juncoides and Bidens tripartite reached 0.5 leaf stage and Sagittaria trifolia reached the time point of primary leaf stage.
(§3) The fertility condition of Echinochloa, Scirpus juncoides, Bidens tripartite and Sagittaria trifolia 14 days after the treatment of the compound of the invention and the fertility condition of rice 21 days after the treatment of the compound of the invention respectively with the naked eye.
(§4) The seeds of Echinochloa crus-galli, Scirpus juncoides and Monochoria vaginalis were collected from Heilongjing and Jiangsu Province of China.

Monochoria vaginalis = test: as above; set-up: key: Level 10: completely dead; Level 9: above 90% growth inhibition rate; Level 8: above 80% growth inhibition rate; Level 7: above 70% growth inhibition rate; Level 6: above 60% growth inhibition rate; Level 5: above 50% growth inhibition rate; Level 4: above 30% growth inhibition rate; Level 3: above 20% growth inhibition rate; Level 2: above 10% growth inhibition rate; Level 1: above 1-10% growth inhibition rate; Level 0: no effect; settings: transplanted rice field pot test, 14 days after treatment
Protocol: as §2, §3, §4

Scirpus juncoides = test: as above; set-up: key: Level 10: completely dead; Level 9: above 90% growth inhibition rate; Level 8: above 80% growth inhibition rate; Level 7: above 70% growth inhibition rate; Level 6: above 60% growth inhibition rate; Level 5: above 50% growth inhibition rate; Level 4: above 30% growth inhibition rate; Level 3: above 20% growth inhibition rate; Level 2: above 10% growth inhibition rate; Level 1: above 1-10% growth inhibition rate; Level 0: no effect; settings: transplanted rice field pot test, 14 days after treatment
Protocol: as §2, §3, §4

Rice = test: Transplanted rice safety evaluation; set-up: key: Level 10: completely dead; Level 9: above 90% growth inhibition rate; Level 8: above 80% growth inhibition rate; Level 7: above 70% growth inhibition rate; Level 6: above 60% growth inhibition rate; Level 5: above 50% growth inhibition rate; Level 4: above 30% growth inhibition rate; Level 3: above 20% growth inhibition rate; Level 2: above 10% growth inhibition rate; Level 1: above 1-10% growth inhibition rate; Level 0: no effect; settings: transplanted 3 leaf stage japonica rice, 21 days after treatment
Protocol: In addition, the rice field soil that loaded into the 1/1,000,000 ha pot was leveled to keep water storage at 3-4 cm depth. The 3 leaf stage rice (japonica rice) was transplanted at 3 cm of transplanting depth the next day. The compound of the present invention was treated by the same way after 5 days of transplantation. The fertility condition of Echinochloa, Scirpus juncoides, Bidens tripartite and Sagittaria trifolia 14 days after the treatment of the compound of the invention and the fertility condition of rice 21 days after the treatment of the compound of the invention respectively with the naked eye.

`C#CCOCc1c(S(C)(=O)=O)ccc(C(=O)c2c(C3CC3)nn(C)c2OC(=O)c2cnn(C)c2)c1Cl` [Compound 60] was tested. Which “weed control effect, Abutilon theophrasti (level)” value ([1]; 30 g/ha) did it give?
The value was 6 (Level 6: above 60% growth inhibition rate).

What about the “weed control effect, Bidens pilosa (level)” value ([1]; 30 g/ha) of the same compound?
Its value is 4 (Level 4: above 30% growth inhibition rate).

What about the “weed control effect, Digitaria sanguinalis (level)” value ([1]; 30 g/ha) of the same compound?
Its value is 7 (Level 7: above 70% growth inhibition rate).

What about the “weed control effect, Echinochloa crus-galli (level)” value ([1]; 30 g/ha) of the same compound?
The value was 10.

What about the “weed control effect, Rorippa indica (level)” value ([1]; 30 g/ha) of the same compound?
Its value is 7 (Level 7: above 70% growth inhibition rate).

What about the “weed control effect, Setaria viridis (level)” value ([1]; 30 g/ha) of the same compound?
Its value is 7 (Level 7: above 70% growth inhibition rate).

What about the “effect on crop, corn (level)” value ([2]; 30 g/ha) of the same compound?
The value was 0.

What about the “effect on crop, rice (level)” value ([2]; 30 g/ha) of the same compound?
The value was 5 (Level 5: above 50% growth inhibition rate).

What about the “effect on crop, wheat (level)” value ([2]; 30 g/ha) of the same compound?
Its value is 0.

And the “Weed control effect, Echinochloa crus-galli (activity level)” value (Echinochloa crus-galli; application rate 60 g/ha)?
Its value is 10.

What about the “Weed control effect, Monochoria vaginalis (activity level)” value (Monochoria vaginalis; application rate 60 g/ha) of the same compound?
The value was 10.

What about the “Weed control effect, Scirpus juncoides (activity level)” value (from here on “Weed control effect, Scirpus juncoides”) (Scirpus juncoides; application rate 60 g/ha) of the same compound?
Its value is 10.

And the “Rice (safety, activity level)” value (Rice; application rate 60 g/ha)?
Its value is 2 (Level 2: above 10% growth inhibition rate).

For `Cc1nn(C)cc1C(=O)Oc1c(C(=O)c2ccc(S(C)(=O)=O)c(Cn3cc(Cl)cn3)c2Cl)c(C2CC2)nn1C` [Compound 10], which “weed control effect, Abutilon theophrasti (level)” value ([1]; 120 g/ha) is on record?
Its value is 7 (Level 7: above 70% growth inhibition rate).

What about the “weed control effect, Bidens pilosa (level)” value ([1]; 120 g/ha) of the same compound?
The value was 9 (Level 9: above 90% growth inhibition rate).

And the “weed control effect, Digitaria sanguinalis (level)” value ([1]; 120 g/ha)?
Its value is 2 (Level 2: above 10% growth inhibition rate).

What about the “weed control effect, Echinochloa crus-galli (level)” value ([1]; 120 g/ha) of the same compound?
Its value is 10.

What about the “weed control effect, Rorippa indica (level)” value ([1]; 120 g/ha) of the same compound?
Its value is 10.

And the “weed control effect, Setaria viridis (level)” value ([1]; 120 g/ha)?
Its value is 7 (Level 7: above 70% growth inhibition rate).

And the “effect on crop, corn (level)” value ([2]; 120 g/ha)?
The value was 0.

What about the “effect on crop, rice (level)” value ([2]; 120 g/ha) of the same compound?
Its value is 1 (Level 1: above 1-10% growth inhibition rate).

And the “effect on crop, wheat (level)” value ([2]; 120 g/ha)?
The value was 0.

And the “Weed control effect, Echinochloa crus-galli (activity level)” value (Echinochloa crus-galli; application rate 500 g/ha)?
The value was 10.

What about the “Weed control effect, Monochoria vaginalis (activity level)” value (Monochoria vaginalis; application rate 500 g/ha) of the same compound?
The value was 10.

What about the “Weed control effect, Scirpus juncoides” value (Scirpus juncoides; application rate 500 g/ha) of the same compound?
Its value is 10.

And the “Rice (safety, activity level)” value (Rice; application rate 500 g/ha)?
The value was 1 (Level 1: above 1-10% growth inhibition rate).

How did the “weed control effect, Abutilon theophrasti (level)” value ([1]; 30 g/ha) turn out when `CCOCc1c(S(C)(=O)=O)ccc(C(=O)c2c(C3CC3)nn(C)c2OC(=O)c2cn(C)nc2C)c1Cl` [Compound 46] was run?
The value was 7 (Level 7: above 70% growth inhibition rate).

What about the “weed control effect, Bidens pilosa (level)” value ([1]; 30 g/ha) of the same compound?
The value was 7 (Level 7: above 70% growth inhibition rate).

And the “weed control effect, Digitaria sanguinalis (level)” value ([1]; 30 g/ha)?
Its value is 10.

What about the “weed control effect, Echinochloa crus-galli (level)” value ([1]; 30 g/ha) of the same compound?
The value was 10.

And the “weed control effect, Rorippa indica (level)” value ([1]; 30 g/ha)?
Its value is 10.

What about the “weed control effect, Setaria viridis (level)” value ([1]; 30 g/ha) of the same compound?
The value was 10.

And the “effect on crop, corn (level)” value ([2]; 30 g/ha)?
The value was 1 (Level 1: above 1-10% growth inhibition rate).

And the “effect on crop, rice (level)” value ([2]; 30 g/ha)?
Its value is 3 (Level 3: above 20% growth inhibition rate).

And the “effect on crop, wheat (level)” value ([2]; 30 g/ha)?
The value was 0.

What about the “Weed control effect, Echinochloa crus-galli (activity level)” value (Echinochloa crus-galli; application rate 60 g/ha) of the same compound?
The value was 8 (Level 8: above 80% growth inhibition rate).

And the “Weed control effect, Monochoria vaginalis (activity level)” value (Monochoria vaginalis; application rate 60 g/ha)?
Its value is 9 (Level 9: above 90% growth inhibition rate).

And the “Weed control effect, Scirpus juncoides” value (Scirpus juncoides; application rate 60 g/ha)?
Its value is 9 (Level 9: above 90% growth inhibition rate).

What about the “Rice (safety, activity level)” value (Rice; application rate 60 g/ha) of the same compound?
Its value is 0.
